Experimental data: ChEMBL document CHEMBL4417621, “Methods to identify tas2r modulators” (2013)
Calls of active or inactive are those of the source. The rule behind the calls is not given here.

Tests used:
[1] = target: T1, Taste receptor type 2 member 31 (Homo sapiens) (UniProt P59538); test: Activation of full-length human TAS2R44 expressed in HEK293T/Galpha16-gustducin 44 cells assessed as effect on calcium flux by measuring deltaF/F0 ratio at 50 mM by Fluo-4 dye based FLIPR assay (reference value: […] +/ - 0.016); format: functional, cell-based
T1 sequence (whole entry): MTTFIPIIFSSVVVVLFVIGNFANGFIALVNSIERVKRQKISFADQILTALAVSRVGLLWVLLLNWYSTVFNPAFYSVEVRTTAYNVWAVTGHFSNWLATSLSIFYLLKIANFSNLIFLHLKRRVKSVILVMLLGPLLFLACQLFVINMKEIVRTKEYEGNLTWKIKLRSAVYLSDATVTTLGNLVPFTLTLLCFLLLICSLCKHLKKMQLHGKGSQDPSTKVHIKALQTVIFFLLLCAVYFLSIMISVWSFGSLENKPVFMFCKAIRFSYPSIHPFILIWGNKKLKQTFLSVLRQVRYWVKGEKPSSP

[2] = target: T2, Taste receptor type 2 member 10 (Homo sapiens) (UniProt Q9NYW0); test: Activation of full-length human TAS2R10 expressed in HEK293T/Galpha16-gustducin 44 cells assessed as effect on calcium flux by measuring deltaF/F0 ratio at 6.25 mM by Fluo-4 dye based FLIPR assay; format: functional, cell-based
T2 sequence (whole entry): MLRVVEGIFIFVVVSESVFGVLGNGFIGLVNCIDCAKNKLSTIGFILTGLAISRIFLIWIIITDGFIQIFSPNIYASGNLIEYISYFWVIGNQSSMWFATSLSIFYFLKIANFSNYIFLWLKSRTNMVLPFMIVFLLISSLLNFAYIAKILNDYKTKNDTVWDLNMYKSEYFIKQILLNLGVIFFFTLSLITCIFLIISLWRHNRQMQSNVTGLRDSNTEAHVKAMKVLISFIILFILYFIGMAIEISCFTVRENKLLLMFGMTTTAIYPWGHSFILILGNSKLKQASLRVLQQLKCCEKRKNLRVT

[3] = target: T1, Taste receptor type 2 member 31 (Homo sapiens); test: Activation of full-length human TAS2R44 expressed in HEK293T/Galpha16-gustducin 44 cells assessed as effect on calcium flux by measuring deltaF/F0 ratio at 3.125 mM by Fluo-4 dye based FLIPR assay (reference value: […] +/ - 0.001); format: functional, cell-based
[4] = target: T3, Taste receptor type 2 member 46 (Homo sapiens) (UniProt P59540); test: Activation of full-length human TAS2R46 expressed in HEK293T/Galpha16-gustducin 44 cells assessed as effect on calcium flux by measuring deltaF/F0 ratio at 3.125 mM by Fluo-4 dye based FLIPR assay; format: functional, cell-based
T3 sequence (whole entry): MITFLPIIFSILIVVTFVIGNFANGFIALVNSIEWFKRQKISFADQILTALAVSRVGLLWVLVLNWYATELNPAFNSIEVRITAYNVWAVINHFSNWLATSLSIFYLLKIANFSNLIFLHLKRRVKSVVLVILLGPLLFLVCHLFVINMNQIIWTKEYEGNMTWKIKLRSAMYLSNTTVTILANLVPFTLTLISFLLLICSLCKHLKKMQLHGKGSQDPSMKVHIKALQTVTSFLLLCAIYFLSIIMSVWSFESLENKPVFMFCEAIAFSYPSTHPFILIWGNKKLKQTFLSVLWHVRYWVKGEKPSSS

[5] = target: T3, Taste receptor type 2 member 46 (Homo sapiens); test: Activation of full-length human TAS2R46 expressed in HEK293T/Galpha16-gustducin 44 cells assessed as effect on calcium flux by measuring deltaF/F0 ratio by Fluo-4 dye based FLIPR assay; format: functional, cell-based
Homo sapiens = species on record: Homo sapiens; test: Induction of bitter sensitivity in bitter sensitive human panelists tasting solution containing 3 mM compound in absence of 13 ppm (E)-4-(2,2,3-trimethylcyclopent-3-enyl)but-2-enoic acid; format: functional, organism-based
[6] = target: T4, Taste receptor type 2 member 1 (Homo sapiens) (UniProt Q9NYW7); test: Activation of full-length human TAS2R1 expressed in HEK293T/Galpha16-gustducin 44 cells assessed as effect on calcium flux by measuring deltaF/F0 ratio at 0.7813 mM by Fluo-4 dye based FLIPR assay; format: functional, cell-based
T4 sequence (whole entry): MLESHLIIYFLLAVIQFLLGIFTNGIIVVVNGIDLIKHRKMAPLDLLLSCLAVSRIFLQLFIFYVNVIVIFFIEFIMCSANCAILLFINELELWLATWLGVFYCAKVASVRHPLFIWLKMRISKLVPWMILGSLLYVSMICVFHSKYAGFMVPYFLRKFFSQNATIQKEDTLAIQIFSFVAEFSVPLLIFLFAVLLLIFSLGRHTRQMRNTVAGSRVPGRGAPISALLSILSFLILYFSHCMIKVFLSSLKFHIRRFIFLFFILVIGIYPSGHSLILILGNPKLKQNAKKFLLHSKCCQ

[7] = target: T4, Taste receptor type 2 member 1 (Homo sapiens); test: Activation of full-length human TAS2R1 expressed in HEK293T/Galpha16-gustducin 44 cells assessed as effect on calcium flux by measuring deltaF/F0 ratio at 100 mM by Fluo-4 dye based FLIPR assay; format: functional, cell-based
[8] = target: T4, Taste receptor type 2 member 1 (Homo sapiens); test: Activation of full-length human TAS2R1 expressed in HEK293T/Galpha16-gustducin 44 cells assessed as effect on calcium flux by measuring deltaF/F0 ratio at 6.25 mM by Fluo-4 dye based FLIPR assay; format: functional, cell-based
[9] = target: T1, Taste receptor type 2 member 31 (Homo sapiens); test: Activation of full-length human TAS2R44 expressed in HEK293T/Galpha16-gustducin 44 cells assessed as effect on calcium flux by measuring deltaF/F0 ratio at 25 mM by Fluo-4 dye based FLIPR assay (reference value: […] +/ - 0.017); format: functional, cell-based
[10] = target: T1, Taste receptor type 2 member 31 (Homo sapiens); test: Activation of full-length human TAS2R44 expressed in HEK293T/Galpha16-gustducin 44 cells assessed as effect on calcium flux by measuring deltaF/F0 ratio at 0.3906 mM by Fluo-4 dye based FLIPR assay (reference value: […] +/ - 0.002); format: functional, cell-based
[11] = target: T3, Taste receptor type 2 member 46 (Homo sapiens); test: Activation of full-length human TAS2R46 expressed in HEK293T/Galpha16-gustducin 44 cells assessed as effect on calcium flux by measuring deltaF/F0 ratio at 50 mM by Fluo-4 dye based FLIPR assay; format: functional, cell-based
[12] = target: T2, Taste receptor type 2 member 10 (Homo sapiens); test: Activation of full-length human TAS2R10 expressed in HEK293T/Galpha16-gustducin 44 cells assessed as effect on calcium flux by measuring deltaF/F0 ratio at 0.3906 mM by Fluo-4 dye based FLIPR assay; format: functional, cell-based
[13] = target: T2, Taste receptor type 2 member 10 (Homo sapiens); test: Activation of full-length human TAS2R10 expressed in HEK293T/Galpha16-gustducin 44 cells assessed as effect on calcium flux by measuring deltaF/F0 ratio at 25 mM by Fluo-4 dye based FLIPR assay; format: functional, cell-based
[14] = target: T2, Taste receptor type 2 member 10 (Homo sapiens); test: Activation of full-length human TAS2R10 expressed in HEK293T/Galpha16-gustducin 44 cells assessed as effect on calcium flux by measuring deltaF/F0 ratio by Fluo-4 dye based FLIPR assay; format: functional, cell-based
[15] = target: T4, Taste receptor type 2 member 1 (Homo sapiens); test: Activation of full-length human TAS2R1 expressed in HEK293T/Galpha16-gustducin 44 cells assessed as effect on calcium flux by measuring deltaF/F0 ratio at 0.3906 mM by Fluo-4 dye based FLIPR assay; format: functional, cell-based
[16] = target: T2, Taste receptor type 2 member 10 (Homo sapiens); test: Activation of full-length human TAS2R10 expressed in HEK293T/Galpha16-gustducin 44 cells assessed as effect on calcium flux by measuring deltaF/F0 ratio at 0.7813 mM by Fluo-4 dye based FLIPR assay; format: functional, cell-based

## OC[C@H]1O[C@H](O[C@]2(CCl)O[C@H](CCl)[C@@H](O)[C@@H]2O)[C@H](O)[C@@H](O)[C@H]1Cl [SUCRALOSE]
[1]
  Ratio: 0.256
[2]
  Ratio: 0.053
[3]
  Ratio: 0.043
[4]
  Ratio: 0.036
[5]
  Activity: Dose-dependent effect
Homo sapiens
  Activity: Active
[6]
  Ratio: 0.05
[7]
  Ratio: 0.518
[8]
  Ratio: 0.061
[9]
  Ratio: 0.197
[10]
  Ratio: 0.023
[11]
  Ratio: 0.171
[12]
  Ratio: 0.05
[13]
  Ratio: 0.087
[14]
  Activity: Dose-dependent effect
[15]
  Ratio: 0.052
[16]
  Ratio: 0.05
